Data published in BindingDB's records for doi:10.1021/jm991119p (The Institute of Cancer Research, 2000).

Target: reduced folate carrier 1 (Mus musculus)
Assay: Affinity towards RFC (Reduced folate carrier) measured by the inhibition of [3H]MTX uptake

Ki: 200 µM
Structure (SMILES): C#CCN(Cc1cc2c(=O)[nH]c(C)nc2cc1C)c1ccc(C(=O)N[C@@H](CCC(=O)N[C@H](CCC(=O)O)C(=O)O)C(=O)O)cc1
